The source made the active and inactive calls. No cut-off for these calls is given here.

The test system of one data set is A549. Kind of data set: Antiproliferative activity against human A549 cells assessed as inhibition of cell growth by MTT assay. In kind it is functional, cell-based.
Data set [1] concerns MDA-MB-231. Kind of data set: Antiproliferative activity against human MDA-MB-231 cells assessed as inhibition of cell growth by MTT assay. Type of data set: functional, cell-based.
The next data set relates to HeLa. Kind of data set: Antiproliferative activity against human HeLa cells assessed as inhibition of cell growth by MTT assay. In kind it is functional, cell-based.
Data set [2] deals with 4T1. Kind of data set: Antitumor activity against mouse 4T1 cells implanted in Balb/c mouse assessed as apoptotic rate of dissected tumor cell at 50 mg/kg administered intratumorally every four days for 14 days in the presence of liquid cyanoacrylate by flow cytometric analysis (reference value: 64.83%). Particulars: route it(Intratumoral), time 14 day. Type of data set: functional. Background: Flow cytometry measures light scatter and fluorescence of single cells or particles in a stream.

Data set [3] relates to 4T1. Kind of data set: Antitumor activity against mouse 4T1 cells implanted in Balb/c mouse assessed as tumor growth inhibition by measuring T/C ratio at 50 mg/kg administered intratumorally every four days for 14 days in the presence of liquid cyanoacrylate. Particulars: route it(Intratumoral), time 14 day. In kind it is functional.
The next data set concerns Mus musculus. Kind of data set: Protection of Balb/c mouse spleen implanted with mouse 4T1 cells at 50 mg/kg administered intratumorally every four days for 14 days in the presence of liquid cyanoacrylate. Particulars: route it(Intratumoral), time 14.0 day. Type of data set: functional, organism-based.
Data set [4] deals with 4T1. Kind of data set: Antitumor activity against mouse 4T1 cells implanted in Balb/c mouse assessed as tumor growth inhibition at 50 mg/kg administered intratumorally every four days for 14 days in the presence of liquid cyanoacrylate relative to control. Type of data set: functional. The settings on record: 4T1, 336 h, route it(Intratumoral), time 14 day, read-out: TGI.

Data set [5] is described as follows: Toxicity in Balb/c mouse implanted with mouse 4T1 cells assessed as heart lesions at 50 mg/kg administered intratumorally every four days for 14 days in the presence of liquid cyanoacrylate by H&E staining based histopathological analysis. In kind it is organism-based. Particulars: in vivo, other, 336 h, route it(Intratumoral), time 14 day.
Data set [6] can be described thus: Toxicity in Balb/c mouse implanted with mouse 4T1 cells assessed as liver lesions at 50 mg/kg administered intratumorally every four days for 14 days in the presence of liquid cyanoacrylate by H&E staining based histopathological analysis. In kind it is organism-based. Particulars: in vivo, other, 336 h, route it(Intratumoral), time 14 day.
Data set [7] in a line: Toxicity in Balb/c mouse implanted with mouse 4T1 cells assessed as spleen lesions at 50 mg/kg administered intratumorally every four days for 14 days in the presence of liquid cyanoacrylate by H&E staining based histopathological analysis. The settings on record: in vivo, other, 336 h, route it(Intratumoral), time 14 day. In kind it is organism-based.
Data set [8] in a line: Toxicity in Balb/c mouse implanted with mouse 4T1 cells assessed as lung lesions at 50 mg/kg administered intratumorally every four days for 14 days in the presence of liquid cyanoacrylate by H&E staining based histopathological analysis. In kind it is organism-based. The settings on record: in vivo, other, 336 h, route it(Intratumoral), time 14 day.
Data set [9] is described as follows: Toxicity in Balb/c mouse implanted with mouse 4T1 cells assessed as kidney lesions at 50 mg/kg administered intratumorally every four days for 14 days in the presence of liquid cyanoacrylate by H&E staining based histopathological analysis. The settings on record: in vivo, other, 336 h, route it(Intratumoral), time 14 day. In kind it is organism-based.
The subject of data set [10] is 4T1. Kind of data set: Antitumor activity against mouse 4T1 cells implanted in Balb/c mouse assessed as nuclei disappearance at 50 mg/kg administered intratumorally every four days for 14 days in the presence of liquid cyanoacrylate. The settings on record: route it(Intratumoral), time 14.0 day. In kind it is functional, organism-based.
Data set [11] deals with 4T1. Kind of data set: Antitumor activity against mouse 4T1 cells implanted in Balb/c mouse assessed as TUNEL positive cells at 50 mg/kg administered intratumorally every four days for 14 days in the presence of liquid cyanoacrylate by TUNEL staining analysis. In kind it is functional. Particulars: route it(Intratumoral), time 14 day.
Data set [12] deals with MDA-MB-231. Kind of data set: Induction of cell cycle arrest in human MDA-MB-231 cells assessed as decrease in G1 phase cells at 10 uM incubated for 24 hrs by PI staining based flow cytometric analysis (reference value: 74.44%). Type of data set: functional. Also noted: scale not given: the % may be the effect or the level left.
For data set [13], the system named is MDA-MB-231. Kind of data set: Induction of cell cycle arrest in human MDA-MB-231 cells assessed as decrease in S phase cells at 10 uM incubated for 24 hrs by PI staining based flow cytometric analysis (reference value: 16.61%). In kind it is functional. Also noted: scale not given: the % may be the effect or the level left.
Data set [14] concerns MDA-MB-231. Kind of data set: Induction of cell cycle arrest in human MDA-MB-231 cells assessed as increase in G2 phase cells at 10 uM incubated for 24 hrs by PI staining based flow cytometric analysis (reference value: 8.95%). In kind it is functional.
Data set [15] deals with MDA-MB-231. Kind of data set: Induction of apoptosis in human MDA-MB-231 cells assessed as apoptotic cells at 10 uM incubated for 24 hrs by Annexin V-FITC/propidium iodide staining based flow cytometric method (reference value: 5.68%). Type of data set: functional.

Consider `C#CCNC1=C(Cl)C(=O)C(c2c(C)[nH]c3ccccc23)=C(Cl)C1=O`, for which the IC50 in the data set with A549 amounted to 670 nM; in the data set on MDA-MB-231 [1], 170 nM; in the data set on HeLa it was 920 nM.

Turning to `COc1ccc(CCNC2=C(Cl)C(=O)C(c3c(C)[nH]c4ccccc34)=C(Cl)C2=O)cc1OC`, the IC50 with A549 stood at 720 nM; with MDA-MB-231 [1] it was 290 nM; with HeLa it was 6300 nM.

As for `COc1ccc(CCNC2=C(Cl)C(=O)C(Cl)=C(c3c(C)[nH]c4ccccc34)C2=O)cc1OC`, the figures for the IC50 in the data set with A549, with MDA-MB-231 [1] and in the data set on HeLa were 8640 nM, 1490 nM and 9730 nM, respectively.

Take `Cc1[nH]c2ccccc2c1C1=C(Cl)C(=O)C(Cl)=C(N2CCN(C=O)CC2)C1=O`: the results for the IC50 in the data set with A549, in the data set with MDA-MB-231 [1] and in the data set with HeLa were 170 nM, 120 nM and 350 nM, respectively.

Take `COC(=O)/C=C/C(=O)OCCN1CCN(C2=C(Cl)C(=O)C(Cl)=C(c3c(C)[nH]c4ccccc34)C2=O)CC1`: the IC50 came out at 8380 nM in the data set on A549, 260 nM in the data set with MDA-MB-231 [1] and 220 nM in the data set on HeLa.

Consider `Cc1[nH]c2ccccc2c1C1=C(Cl)C(=O)C(NCCOc2ccccc2)=C(Cl)C1=O`, for which the half-maximal inhibitory concentration (IC50) turned out to be 7090 nM with A549, 730 nM in the data set with MDA-MB-231 [1] and 5050 nM in the data set on HeLa.

With `Cc1[nH]c2ccccc2c1C1=C(Cl)C(=O)C(Cl)=C(NCCOc2ccccc2)C1=O`, the figures for the IC50 with A549, with MDA-MB-231 [1] and with HeLa were over 10000 nM, 710 nM and over 10000 nM, respectively.

With `Cn1c(CCCC(=O)O)nc2cc(N(CCCl)CCCl)ccc21` [BENDAMUSTINE], in the data set on HeLa, the IC50 is over 20000 nM.

`O=C1c2c(O)ccc(O)c2C(=O)c2c(NCCNCCO)ccc(NCCNCCO)c21` [MITOXANTRONE]: the Activity with 4T1 [2] was 77.86%; in data set [5], “Non-Toxic”; in [6] it was “Non-Toxic”; in data set [7], “Non-Toxic”; in [8], “Non-Toxic”; in [9], “Non-Toxic”. For the same compound, in the data set on 4T1 [11], the Activity was determined as 93.24%. Also, the T/C in the data set with 4T1 [3] is on record as 32%. For the same compound, the outcome in the data set on Mus musculus and in the data set on 4T1 [10] was Active. For the same compound, the inhibition in vivo at 50 mg/kg in the data set on 4T1 [4] was 59.8%.

With `Cc1[nH]c2ccccc2c1C1=C(Cl)C(=O)C(Cl)=C(NCCc2cc3ccccc3[nH]2)C1=O`, the IC50 in the data set with A549 was over 10000 nM; in the data set with MDA-MB-231 [1], 620 nM; with HeLa, over 10000 nM.

For the compound `Cc1[nH]c2ccccc2c1C1=C(Cl)C(=O)C(N2CCOCC2)=C(Cl)C1=O`, the 50% inhibitory concentration (IC50) was found to be 170 nM with A549, 200 nM in the data set with MDA-MB-231 [1] and 250 nM in the data set on HeLa. Besides, the Activity stood at 10.44% with MDA-MB-231 [12], 7.67% in the data set with MDA-MB-231 [13], 81.89% in the data set on MDA-MB-231 [14] and 31.74% in the data set on MDA-MB-231 [15].

Regarding `Cc1[nH]c2ccccc2c1C1=C(Cl)C(=O)C(NCCc2cc3ccccc3[nH]2)=C(Cl)C1=O`, the results for the IC50 in the data set with A549, in the data set with MDA-MB-231 [1] and in the data set on HeLa were 440 nM, 830 nM and 3110 nM, respectively.

For `COc1ccc(/C=C\c2cc(OC)c(OC)c(OC)c2)cc1O` [COMBRETASTATIN A4], the Activity with MDA-MB-231 [12] is on record as 8.4%; in the data set with MDA-MB-231 [13], 8%; with MDA-MB-231 [14], 91.6%; in the data set on MDA-MB-231 [15] it was 25.55%.

As for `Cc1[nH]c2ccccc2c1C1=C(Cl)C(=O)C(N2CCN(C=O)CC2)=C(Cl)C1=O`, the half-inhibitory concentration (IC50) in the data set on A549 amounted to 370 nM; in the data set on MDA-MB-231 [1], 200 nM; in the data set with HeLa, 740 nM.

`COC(=O)/C=C/C(=O)OCCN1CCN(C2=C(Cl)C(=O)C(c3c(C)[nH]c4ccccc34)=C(Cl)C2=O)CC1`: the IC50 in the data set with A549 was determined as 320 nM; in the data set with MDA-MB-231 [1] it was 140 nM; in the data set on HeLa, 330 nM.

Turning to `C#CCNC1=C(Cl)C(=O)C(Cl)=C(c2c(C)[nH]c3ccccc23)C1=O`, the IC50 came to 160 nM in the data set on A549, 190 nM in the data set on MDA-MB-231 [1] and 190 nM in the data set with HeLa.

Consider `COC(=O)/C=C/C(=O)OCCNC1=C(Cl)C(=O)C(c2c(C)[nH]c3ccccc23)=C(Cl)C1=O`, for which the figures for the IC50 with A549, in the data set on MDA-MB-231 [1] and in the data set with HeLa were 150 nM, 110 nM and 220 nM, respectively.

Regarding `COC(=O)/C=C/C(=O)OCCNC1=C(Cl)C(=O)C(Cl)=C(c2c(C)[nH]c3ccccc23)C1=O`, the IC50 in the data set on A549 came to 340 nM; in the data set on MDA-MB-231 [1] it was 140 nM; with HeLa, 110 nM.

The IC50 is the midpoint of a concentration-inhibition curve. The T/C is the result in the treated group divided by that in the control group, in per cent.

Source of the values: ChEMBL document CHEMBL5137015, “Design, synthesis, and evaluation of a novel series of mono-indolylbenzoquinones derivatives for the potential treatment of breast cancer” (Eur J Med Chem, 2022).
